Source: patent US6528535B2, “Bicyclic inhibitors of protein farnesyl transferase” (Warner-Lambert Company, priority 1997, dated 2003)

Columns and labels:
[1] = biological target: T1, SF9 affinity purified rat FPT (Rattus norvegicus, UniProt Q02293+Q04631); test: PFT (farnesyl protein transferase) inhibitory activity, radiolabeled farnesyl pyrophosphate / biotinyl peptide bead assay; type: biochemical; conditions: average of two tests unless n is given in parentheses; read-out: FTase, IC50
T1 construct: made in house; host or cells: Sf9 insect cells
Protocol: The protein:farnesyl transferase (PFT) or farnesyl protein transferase (FPT) inhibitory activity of compounds of the present invention were assayed in HEPES buffer (pH 7.4) containing 5 mM potassium phosphate and 20 μM ZnCl2. The solution also contained 5 mM DTT (dithiothreitol), 5 mM MgCl2, and 0.1% PEG 8000. Assays were performed in 96 well plates (Wallec) and employed solutions composed of varying concentrations of a compound of the present invention in 10% DMSO (dimethylsulfoxide). Upon addition of both substrates, radiolabeled farnesyl pyrophosphate ([1^3H], specific activity 15-30 Ci/mmol, final concentration 134 nM) and (biotinyl)-Ahe-Thr-Lys-Cys-Val-Ile-Met ([3aS[3a alpha, 4 beta, 6a alpha]-hexahydro-2-oxo-1H-thieno[3,4-d]imidazole-5-pentanoic acid]-[7-aminoheptanoic acid]-Thr-Lys-Cys-Val-Ile-Met) (Ahe is 7-aminoheptanoic acid, Thr is threonine, Lys is lysine, Cys is cysteine, Val is valine, Ile is isoleucine, and Met is methionine) (final concentration 0.2 μM), the enzyme reaction was started by addition of SF9 affinity purified rat FPT. After incubation at 30° C. for 30 minutes, the reaction was terminated by diluting the reaction 2.5-fold with a stop buffer containing 1.5 M magnesium acetate, 0.2 M H3PO4, 0.5% BSA (bovine serum albumin), and strepavidin beads (Amersham) at a concentration of 1.3 mg/mL. After allowing the plate to settle for 30 minutes at room temperature, radioactivity was quantitated on a microbeta counter (Model 1450, Wallec). The assay was also carried out without 5 mM potassium phosphate.

`ON=C1CCCc2cc(OCCn3ccnc3)ccc21` [Example 53, 6-[2-(1H-1-Imidazolyl)ethoxyl]-1,2,3,4-tetrahydro-1-naphthalenone oxime] gave a melting point of 177 to 179 °C and an IC50 [1] of 3 µM.
For `CC(COc1ccc2c(c1)CC/C(=C\c1cccs1)C2=O)n1ccnc1` (stereo not shown) [Example 79, 6-[2-(1H-1-Imidazolyl)propoxy]-2-[(E)-1-(2-thienyl)methylidene]-1,2,3,4-tetrahydro-1-naphthalenone], the melting point was 160 to 162 °C and the IC50 [1] was 0.23 µM.
Work on `O=C1C(=Cc2ccncc2)CCc2cc(OCCn3ccnc3)ccc21` [Example 6, 6-(2-Imidazole-1-yl-ethoxy)-2-pyridin-4-ylmethylene-3,4-dihydro-2H-naphthalen-1-one] yielded a melting point of 128.5 to 129 °C and an IC50 [1] of 1.26 µM.
Work on `Cc1ccsc1C=C1CCc2cc(OCCc3c[nH]cn3)ccc2C1=O` [Example 39, 6-[2-(1H-Imidazole-4-yl)-ethoxy]-2-(3-methyl-thiophen-2-ylmethylene)-3,4-dihydro-2H-naphthalen-1-one] yielded a melting point of 191 to 193 °C and an IC50 [1] of 3.1 µM.
`O=C1C(=Cc2ccsc2)CCc2cc(OCCc3c[nH]cn3)ccc21` [Example 28, 6-[2-(1H-Imidazole-4-yl)-ethoxy]-2-thiophen-3-ylmethylene-3,4-dihydro-2H-naphthalen-1-one] gave a melting point of 94 to 96 °C and an IC50 [1] of 0.17 µM.
`O=C1C(=Cc2cccs2)CCc2cc(OCCc3c[nH]cn3)ccc21` [Example 29, 6-[2-(1H-Imidazole-4-yl)-ethoxy]-2-thiophen-2-ylmethylene-3,4-dihydro-2H-naphthalen-1-one] showed a melting point of 60 to 63 °C and an IC50 [1] of 0.088 µM.
Work on `Cl.O=C1CCCc2cc(OCCCc3c[nH]cn3)ccc21` [Example 43, 6-[3-(1H-Imidazole-4-yl)-propoxy]-3,4-dihydro-2H-naphthalen-1-one, hydrochloride] yielded a melting point of 153 to 155 °C and an IC50 [1] of 4.4 µM.
Work on `O=C(O)CON=C1CCCc2cc(OCCn3ccnc3)ccc21` [Example 54, [6-(2-Imidazol-1-yl-ethoxy)-3,4-dihydro-2H-naphthalen-1-ylideneaminooxy]-acetic acid] yielded a melting point of 193 to 195 °C and an IC50 [1] of 0.34 µM.
In the case of `O=C1C(=Cc2ccc([N+](=O)[O-])cc2)CCc2cc(OCCn3ccnc3)ccc21` [Example 7, 6-(2-Imidazole-1-yl-ethoxy)-2-(4-nitro-benzylidene)-3,4-dihydro-2H-naphthalen-1-one], the melting point is reported as 184 to 185 °C and the IC50 [1] is reported as 1.7 µM.
Molecule `O=C1C(=Cc2ccc(-c3cccs3)s2)CCc2cc(OCCn3ccnc3)ccc21` [Example 21, 2-[2,2′]Bithiophenyl-5-ylmethylene-6-(2-imidazole-1-yl-ethoxy)-3,4-dihydro-2H-naphthalen-1-one] has a melting point of 180 to 181 °C and an IC50 [1] of 2.8 µM.
Work on `O=C1C(=Cc2ccc(Br)cc2)CCc2cc(OCCc3c[nH]cn3)ccc21` [Example 42, 2-(4-Bromo-benzylidene)-6-[2-(1H-imidazole-4-yl)-ethoxy]-3,4-dihydro-2H-naphthalen-1-one] yielded a melting point of 176 to 178 °C and an IC50 [1] of 5.9 µM.
Work on `CSc1ccc(CC2CCc3cc(OCCn4ccnc4)ccc3C2=O)cc1` (stereo not shown) [Example 10, 6-(2-Imidazole-1yl-ethoxy)-2-(4-methylsulfanyl-benzyl)-3,4-dihydro-2H-naphthalen-1-one] yielded a melting point of 114 to 117 °C and an IC50 [1] of 0.37 µM.
Work on `O=C1CCOc2cc(OCCn3ccnc3)ccc21` [Example 51, 7-[2-(1H-1-Imidazolyl)ethoxy]-4-chromanone] yielded a melting point of 128 to 130 °C and an IC50 [1] of 4.4 µM.
Molecule `CC1(C)CC(=O)c2ccc(OCCn3ccnc3)cc2O1` [Example 83, 7-[2-(1H-Imidazolyl)ethoxy]-2,2-dimethyl-4-chromanone] has a melting point of 84 to 86 °C and an IC50 [1] of 0.9 µM.
With `O=C1C(=Cc2ccco2)CCc2cc(OCCn3ccnc3)ccc21` [Example 16, 2-Furan-2-ylmethylene-6-(2-imidazole-1-yl-ethoxy)-3,4-dihydro-2H-naphthalen-1-one] the melting point was 109 to 110 °C and the IC50 [1] was 0.11 µM.
`O=C1C(=Cc2ccsc2)CCc2cc(OCCn3ccnc3)ccc21` [Example 11, 6-(2-Imidazole-1yl-ethoxy)-2-thiophen-3-ylmethylene-3,4-dihydro-2H-naphthalen-1-one] gave a melting point of 61 to 62 °C and an IC50 [1] of 0.12 µM.
For `Cc1cc2c(cc1OCCn1ccnc1)CC/C(=C\c1cccs1)C2=O` [Example 46, 6-[2-(1H-1-Imidazolyl)ethoxy]-7-methyl-2-[(E)-1-(2-thienyl)methylidene]-1,2,3,4-tetrahydro-1-naphthalenone], the melting point was 150 to 151 °C and the IC50 [1] was 15.4 µM.
With `O=c1cc(-c2ccccc2)oc2cc(OCCn3ccnc3)ccc12` [Example 77, 7-[2-(1H-1-Imidazolyl)ethoxy]-2-phenyl-4H-4-chromenone] the melting point was 155 to 159 °C and the IC50 [1] was 9.3 µM.
In the case of `O=C1CC(c2ccccc2)Oc2cc(OCCn3ccnc3)ccc21` (stereo not shown) [Example 76, 7-[2-(1H-1-Imidazolyl)ethoxy]-2-phenyl-4-chromanone], the melting point is reported as 139 to 140 °C and the IC50 [1] is reported as 0.12 µM.
With `O=C1C(=Cc2cccc3ccccc23)CCc2cc(OCCn3ccnc3)ccc21` [Example 15, 6-(2-Imidazole-1-yl-ethoxy)-2-naphthalen-1-ylmethylene-3,4-dihydro-2H-naphthalen-1-one] the melting point was 147 to 148 °C and the IC50 [1] was 1.3 µM.
Work on `Cc1ccc(C=C2CCc3cc(OCCc4c[nH]cn4)ccc3C2=O)s1` [Example 37, 6-[2-(1H-Imidazole-4-yl)-ethoxy]-2-(5-methyl-thiophen-2-ylmethylene)-3,4-dihydro-2H-naphthalen-1-one] yielded a melting point of 69 to 70 °C and an IC50 [1] of 0.49 µM.
`Cc1c(OCCn2ccnc2)ccc2c1CC/C(=C\c1cccs1)C2=O` [Example 48, 6-[2-(1H-1-Imidazolyl)ethoxy]-5-methyl-2-[(E)-1-(2-thienyl)methylidene]-1,2,3,4-tetrahydro-1-naphthalenone] gave a melting point of 182 to 184 °C and an IC50 [1] of 0.4 µM.
With `Cc1c(OCCn2ccnc2)ccc2c1CCCC2=O` [Example 47, 6-[2-(1H-1-Imidazolyl)ethoxy]-5-methyl-1,2,3,4-tetrahydro-1-naphthalenone] the melting point was 110 to 112 °C and the IC50 [1] was 1.3 µM.
`CSc1ccc(C=C2CCc3cc(OCCc4c[nH]cn4)ccc3C2=O)s1.Cl` [Example 32, 6-[2-(1H-Imidazole-4-yl)-ethoxy]-2-(5-methylsulfanyl-thiophen-2-ylmethylene)-3,4-dihydro-2H-naphthalen-1-one, monohydrochloride] showed a melting point of 168 to 169 °C and an IC50 [1] of 9.1 µM.
In the case of `O=C1C(=Cc2cccs2)CCc2cc(OCCn3ccnc3)ccc21` [Example 14, 6-(2-Imidazole-1-yl-ethoxy)-2-thiophen-2-ylmethylene-3,4-dihydro-2H-naphthalen-1-one], the melting point is reported as 137 to 138 °C and the IC50 [1] is reported as 0.089 µM.
Molecule `CSc1ccc(C=C2CCc3cc(OCCc4c[nH]cn4)ccc3C2=O)cc1` [Example 31, 6-[2-(1H-Imidazole-4-yl)-ethoxy]-2-(4-methylsulfanyl-benzylidene)-3,4-dihydro-2H-naphthalen-1-one] has a melting point of 65 to 70 °C and an IC50 [1] of 0.59 µM.
In the case of `O=C1C(=Cc2ccc(Cl)s2)CCc2cc(OCCn3ccnc3)ccc21` [Example 18, 2-(5-Chloro-thiophen-2-ylmethylene)-6-(2-imidazole-1-yl-ethoxy)-3,4-dihydro-2H-naphthalen-1-one], the melting point is reported as 143 to 144 °C and the IC50 [1] is reported as 0.32 µM.
For `O=C(O)c1ccc(C=C2CCc3cc(OCCn4ccnc4)ccc3C2=O)cc1` [Example 12, 4-[6-(2-Imidazole-1-yl-ethoxy)-1-oxo-3,4-dihydro-1H-naphthalen-2-ylidenemethyl]-benzoic acid], the melting point was 267 to 267.5 °C and the IC50 [1] was 0.6 µM.
Work on `O=C1c2ccc(OCCn3ccnc3)cc2CCC1Cc1ccc(Br)cc1` (stereo not shown) [Example 13, 2-(4-Bromo-benzyl)-6-(2-imidazole-1-yl-ethoxy)-3,4-dihydro-2H-naphthalen-1-one] yielded a melting point of 129 to 130.5 °C and an IC50 [1] of 0.29 µM.
Molecule `CCN(CC)C(=O)c1ccc(C=C2CCc3cc(OCCc4c[nH]cn4)ccc3C2=O)cc1.Cl` [Example 34, N,N-Diethyl-4-{6-[2-(1H-imidazole-4-yl)-ethoxy]-1-oxo-3,4-dihydro-1H-naphthalen-2-ylidenemethyl}-benzamide, monohydrochloride] has a melting point of 211 to 213 °C and an IC50 [1] of 12.2 µM.
`O=C1C(=Cc2ccoc2)CCc2cc(OCCn3ccnc3)ccc21` [Example 23, 2-Furan-3-ylmethylene-6-(2-imidazole-1-yl-ethoxy)-3,4-dihydro-2H-naphthalen-1-one] showed a melting point of 116 to 117 °C and an IC50 [1] of 1.6 µM.
With `O=C1C(=Cc2cc(Br)cs2)CCc2cc(OCCn3ccnc3)ccc21` [Example 17, 2-(4-Bromo-thiophen-2-ylmethylene)-6-(2-imidazole-1-yl-ethoxy)-3,4-dihydro-2H-naphthalen-1-one] the melting point was 164 to 166 °C and the IC50 [1] was 0.1 µM.
